US20240261294A1, “METHOD FOR TREATING IDH INHIBITOR-RESISTANT SUBJECTS” (Eli Lilly and Company, priority 2021, published 2024)
Substitutions are numbered along the chain they refer to. Like-named read-outs stand apart in the source and are kept apart here.

How the values were obtained:
IDH2 R172K_P167R cis = target: T1, IDH2 R172K_P167R cis (Homo sapiens, UniProt P48735, P167R/R172K); experiment: Inhibition of 2-HG production in IDH2 mutant U-87 MG cells; format: cell-based; conditions: 16 hours incubation, 50K cells/well, 100 μl media/well, read-out: Relative IC50 (nM) Mean, inhibition of 2-HG production
T1 construct: expressed in transfected cells; host or cells: U-87 MG
T1 sequence (P48735 40-452 P167R/R172K): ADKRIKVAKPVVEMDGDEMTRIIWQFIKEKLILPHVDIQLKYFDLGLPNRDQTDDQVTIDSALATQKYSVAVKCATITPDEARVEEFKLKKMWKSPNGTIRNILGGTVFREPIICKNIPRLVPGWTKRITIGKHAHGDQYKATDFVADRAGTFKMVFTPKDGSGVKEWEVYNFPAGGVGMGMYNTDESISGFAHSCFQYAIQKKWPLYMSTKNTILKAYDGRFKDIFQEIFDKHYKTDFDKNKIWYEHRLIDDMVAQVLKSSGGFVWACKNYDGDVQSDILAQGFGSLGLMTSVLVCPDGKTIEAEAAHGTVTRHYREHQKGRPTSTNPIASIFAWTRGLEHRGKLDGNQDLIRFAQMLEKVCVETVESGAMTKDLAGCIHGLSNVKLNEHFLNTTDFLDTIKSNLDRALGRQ

IDH2 R140Q + Q316E trans = target: T2, IDH2 R140Q + Q316E trans (Homo sapiens, UniProt P48735, Q316E/R140Q); experiment: as above; format: cell-based
T2 construct: expressed in transfected cells; host or cells: U-87 MG
T2 sequence (P48735 40-452 R140Q): T1 sequence (P48735 40-452 P167R/R172K) with R101Q, R128P, K133R
T2 sequence (P48735 40-452 Q316E): T1 sequence (P48735 40-452 P167R/R172K) with R128P, K133R, Q277E

- IC50 (IDH2 R172K_P167R cis): 119 nM
- IC50 (IDH2 R140Q + Q316E trans; IDH2 R140Q + Q316E trans, 72 hours incubation, 12.5K cells/well, 150 μl media/well, read-out: IC50, inhibition of 2-HG production): 5.84 nM
- IC50 (IDH2 R140Q + Q316E trans; IDH2 R140Q_Q316E trans, 16 hours incubation, 50K cells/well, 100 μl media/well, read-out: Relative IC50 (nM) Mean, inhibition of 2-HG production): 23 nM
SMILES: C=CC(=O)N1CCN([C@@H](CC2CC2)c2ccc([C@H](C)Nc3ncc4c(n3)N(CC)C(=O)OC4)cc2)CC1 [Compound A, 7-[[(1S)-1-[4-[(1S)-2-cyclopropyl-1-(4-prop-2-enoylpiperazin-1-yl)ethyl]phenyl]ethyl]amino]-1-ethyl-4H-pyrimido[4,5-d][1,3]oxazin-2-one]
